Assay results published in PubChem BioAssay (NCI).
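Briefly, cells in 96-well plates were exposed to five compound concentrations for 48 h, and endpoints were estimated by linear interpolation. At the GI50, growth is halved. TGI marks complete inhibition of growth.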

Assays:
Test in all cases: DTP human tumour cell line panel, 48 h
[1] = system: SR leukemia
[2] = system: MDA-MB-231 breast
[3] = system: SK-MEL-5 melanoma
[4] = system: SF-295 CNS
[5] = system: MALME-3M melanoma
[6] = system: SW-620 colon
[7] = system: RXF 393 renal
[8] = system: DU-145 prostate
[9] = system: U251 CNS
[10] = system: A549 NSCLC
[11] = system: SK-MEL-28 melanoma
[12] = system: MCF7 breast
[13] = system: HCC-2998 colon
[14] = system: HCT-116 colon
[15] = system: NCI-H23 lung
[16] = system: OVCAR-5 ovarian
[17] = system: UACC-62 melanoma
[18] = system: 786-0 renal
[19] = system: CCRF-CEM leukemia
[20] = system: UACC-257 melanoma
[21] = system: OVCAR-3 ovarian
[22] = system: SNB-75 CNS
[23] = system: NCI-H226 lung
[24] = system: HOP-62 NSCLC
[25] = system: K-562 leukemia
[26] = system: MOLT-4 leukemia
[27] = system: KM12 colon
[28] = system: OVCAR-4 ovarian
[29] = system: OVCAR-8 ovarian
[30] = system: ACHN renal
[31] = system: SNB-19 CNS
[32] = system: HCT-15 colon
[33] = system: CAKI-1 renal
[34] = system: SF-268 CNS
[35] = system: NCI/ADR-RES ovarian
[36] = system: MDA-MB-435
[37] = system: A498 renal
[38] = system: M14 melanoma
[39] = system: PC-3 prostate
[40] = system: SF-539 CNS
[41] = system: COLO 205 colon
[42] = system: NCI-H460 lung
[43] = system: EKVX NSCLC
[44] = system: HOP-92 NSCLC
[45] = system: HS 578T breast
[46] = system: UO-31 renal
[47] = system: SK-OV-3 ovarian
[48] = system: IGROV1 ovarian
[49] = system: T-47D breast
[50] = system: LOX IMVI melanoma
[51] = system: HL-60(TB) leukemia
[52] = system: RPMI-8226 leukemia

Question: Which GI50 [1] does the source give for `Nc1nc(N)c(N=Nc2ccccc2)c(-c2ccccc2)n1` here?
Answer: Its GI50 is 4.54 µM.

Question: What about the TGI [1] of the same compound?
Answer: The TGI was 73.3 µM.

Question: What about the GI50 [2] of the same compound?
Answer: Its GI50 is 5.84 µM.

Question: What about the TGI [2] of the same compound?
Answer: The TGI was 30.5 µM.

Question: And the GI50 [3]?
Answer: The GI50 was 3.74 µM.

Question: What about the TGI [3] of the same compound?
Answer: Its TGI is 20.3 µM.

Question: What about the GI50 [4] of the same compound?
Answer: The GI50 was 3.18 µM.

Question: What about the TGI [4] of the same compound?
Answer: The TGI was 18.6 µM.

Question: And the GI50 [5]?
Answer: Its GI50 is 4.33 µM.

Question: What about the TGI [5] of the same compound?
Answer: Its TGI is 24.9 µM.

Question: And the GI50 [6]?
Answer: Its GI50 is 12.8 µM.

Question: And the TGI [6]?
Answer: The TGI was 27.2 µM.

Question: And the GI50 [7]?
Answer: Its GI50 is 3.42 µM.

Question: And the TGI [7]?
Answer: The TGI was 15.4 µM.

Question: What about the GI50 [8] of the same compound?
Answer: The GI50 was 9.9 µM.

Question: What about the TGI [8] of the same compound?
Answer: The TGI was 34.1 µM.

Question: And the GI50 [9]?
Answer: Its GI50 is 8.27 µM.

Question: And the TGI [9]?
Answer: Its TGI is 26.8 µM.

Question: What about the GI50 [10] of the same compound?
Answer: The GI50 was 6.85 µM.

Question: What about the TGI [10] of the same compound?
Answer: The TGI was 22.8 µM.

Question: And the GI50 [11]?
Answer: The GI50 was 11.3 µM.

Question: What about the TGI [11] of the same compound?
Answer: Its TGI is 28.2 µM.

Question: And the GI50 [12]?
Answer: Its GI50 is 0.362 µM.

Question: And the TGI [12]?
Answer: The TGI was 18.1 µM.

Question: What about the GI50 [13] of the same compound?
Answer: Its GI50 is 14.3 µM.

Question: And the TGI [13]?
Answer: The TGI was greater than 100 µM.

Question: What about the GI50 [14] of the same compound?
Answer: Its GI50 is 5.12 µM.

Question: And the TGI [14]?
Answer: The TGI was 18.3 µM.

Question: What about the GI50 [15] of the same compound?
Answer: The GI50 was 10.4 µM.

Question: And the TGI [15]?
Answer: Its TGI is 31.4 µM.

Question: What about the GI50 [16] of the same compound?
Answer: Its GI50 is 6.47 µM.

Question: What about the TGI [16] of the same compound?
Answer: Its TGI is 23.8 µM.

Question: What about the GI50 [17] of the same compound?
Answer: The GI50 was 4.33 µM.

Question: And the TGI [17]?
Answer: The TGI was 20.1 µM.

Question: And the GI50 [18]?
Answer: The GI50 was 5.98 µM.

Question: What about the TGI [18] of the same compound?
Answer: The TGI was 19.4 µM.

Question: And the GI50 [19]?
Answer: Its GI50 is 8.14 µM.

Question: What about the TGI [19] of the same compound?
Answer: The TGI was greater than 100 µM.

Question: And the GI50 [20]?
Answer: The GI50 was 13.7 µM.

Question: What about the TGI [20] of the same compound?
Answer: The TGI was 35.9 µM.

Question: What about the GI50 [21] of the same compound?
Answer: Its GI50 is 10.4 µM.

Question: What about the TGI [21] of the same compound?
Answer: Its TGI is 23 µM.

Question: What about the GI50 [22] of the same compound?
Answer: The GI50 was 1.41 µM.

Question: And the TGI [22]?
Answer: Its TGI is 7.8 µM.

Question: What about the GI50 [23] of the same compound?
Answer: The GI50 was 4.19 µM.

Question: What about the TGI [23] of the same compound?
Answer: The TGI was 19.4 µM.

Question: What about the GI50 [24] of the same compound?
Answer: The GI50 was 4.25 µM.

Question: What about the TGI [24] of the same compound?
Answer: Its TGI is 19.2 µM.

Question: What about the GI50 [25] of the same compound?
Answer: The GI50 was 10.3 µM.

Question: What about the TGI [25] of the same compound?
Answer: Its TGI is greater than 100 µM.

Question: What about the GI50 [26] of the same compound?
Answer: The GI50 was 3.68 µM.

Question: And the TGI [26]?
Answer: The TGI was 68.7 µM.

Question: And the GI50 [27]?
Answer: The GI50 was 2.89 µM.

Question: And the TGI [27]?
Answer: Its TGI is 14.5 µM.

Question: And the GI50 [28]?
Answer: The GI50 was 4.03 µM.

Question: What about the TGI [28] of the same compound?
Answer: The TGI was 20.7 µM.

Question: What about the GI50 [29] of the same compound?
Answer: Its GI50 is 11.1 µM.

Question: And the TGI [29]?
Answer: The TGI was 37.4 µM.

Question: What about the GI50 [30] of the same compound?
Answer: Its GI50 is 4.49 µM.

Question: What about the TGI [30] of the same compound?
Answer: The TGI was 19 µM.

Question: What about the GI50 [31] of the same compound?
Answer: The GI50 was 12.5 µM.

Question: And the TGI [31]?
Answer: Its TGI is 43.3 µM.

Question: What about the GI50 [32] of the same compound?
Answer: The GI50 was 5.95 µM.

Question: And the TGI [32]?
Answer: The TGI was 39.9 µM.

Question: What about the GI50 [33] of the same compound?
Answer: The GI50 was 3.57 µM.

Question: What about the TGI [33] of the same compound?
Answer: The TGI was 23.5 µM.

Question: And the GI50 [34]?
Answer: The GI50 was 5.86 µM.

Question: And the TGI [34]?
Answer: The TGI was 66.8 µM.

Question: What about the GI50 [35] of the same compound?
Answer: Its GI50 is 9.53 µM.

Question: What about the TGI [35] of the same compound?
Answer: Its TGI is 53.1 µM.

Question: And the GI50 [36]?
Answer: The GI50 was 11.5 µM.

Question: And the TGI [36]?
Answer: The TGI was 29.5 µM.

Question: What about the GI50 [37] of the same compound?
Answer: The GI50 was 2.07 µM.

Question: And the TGI [37]?
Answer: Its TGI is 11.4 µM.

Question: And the GI50 [38]?
Answer: Its GI50 is 12 µM.

Question: What about the TGI [38] of the same compound?
Answer: Its TGI is 34.6 µM.

Question: And the GI50 [39]?
Answer: Its GI50 is 3.02 µM.

Question: What about the TGI [39] of the same compound?
Answer: Its TGI is 20.8 µM.

Question: What about the GI50 [40] of the same compound?
Answer: The GI50 was 6.39 µM.

Question: And the TGI [40]?
Answer: Its TGI is 21.1 µM.

Question: And the GI50 [41]?
Answer: Its GI50 is 9.29 µM.

Question: What about the TGI [41] of the same compound?
Answer: The TGI was 25.8 µM.

Question: And the GI50 [42]?
Answer: The GI50 was 4.16 µM.

Question: And the TGI [42]?
Answer: Its TGI is 17.8 µM.

Question: What about the GI50 [43] of the same compound?
Answer: Its GI50 is 3.75 µM.

Question: And the TGI [43]?
Answer: The TGI was 30.8 µM.

Question: What about the GI50 [44] of the same compound?
Answer: The GI50 was 1.45 µM.

Question: And the TGI [44]?
Answer: The TGI was 9.95 µM.

Question: What about the GI50 [45] of the same compound?
Answer: Its GI50 is 1.66 µM.

Question: And the TGI [45]?
Answer: Its TGI is 6.88 µM.

Question: What about the GI50 [46] of the same compound?
Answer: Its GI50 is 2.54 µM.

Question: What about the TGI [46] of the same compound?
Answer: Its TGI is 24.7 µM.

Question: What about the GI50 [47] of the same compound?
Answer: The GI50 was 4.4 µM.

Question: What about the TGI [47] of the same compound?
Answer: Its TGI is 17.5 µM.

Question: And the GI50 [48]?
Answer: Its GI50 is 2.01 µM.

Question: And the TGI [48]?
Answer: Its TGI is 22.2 µM.

Question: And the GI50 [49]?
Answer: The GI50 was 0.487 µM.

Question: What about the TGI [49] of the same compound?
Answer: The TGI was 6.91 µM.

Question: And the GI50 [50]?
Answer: The GI50 was 11 µM.

Question: What about the TGI [50] of the same compound?
Answer: The TGI was 23.5 µM.

Question: What about the GI50 [51] of the same compound?
Answer: The GI50 was 11.1 µM.

Question: What about the TGI [51] of the same compound?
Answer: The TGI was greater than 100 µM.

Question: What about the GI50 [52] of the same compound?
Answer: The GI50 was 7.98 µM.

Question: And the TGI [52]?
Answer: Its TGI is 46 µM.
